Test results reported in publication PMC4802734 (Cell Chemical Biology, 2016).
“Also recorded” adds a separate entry of the source.

Key:
[1] = molecular target: T1, PrfAWT binding to hly-DNA (Listeria monocytogenes serovar 1/2a, UniProt P22262); assay: SPR, binding of compound-pre-incubated PrfAWT to hly-promoter DNA; assay type: biochemical; conditions: 200 nM protein, 37°C, read-out: IC50, reduction of binding of PrfAWT to hly-DNA
T1 construct: followed by residues Glu7-N237; vector-derived N-terminal tail […]; (left after thrombin cleavage; inferred from pET28a and Ni-NTA capture), removed by thrombin (N, cleaved yes); made in house; host or cells: E. coli BL21(DE3)

[2] = test system: LLO and ActA expression in L. monocytogenes; assay: Western blot of virulence protein levels (LLO, ActA, PrfA, P60), EGDe; assay type: cell-based, Listeria monocytogenes; conditions: for expression of LLO and ActA (protein): 100 μM; for PrfA expression (protein): across all concentrations
Experimental: (§1) (D) Compound 2 abrogates intracellular induction of ActA expression. Caco-2 cells were infected with the indicated bacteria and treated 30 min post infection with 100 μM of 2 or the equivalent volume of DMSO (C). Total cellular protein was extracted at indicated time points after addition of compound and subjected to SDS-PAGE. The levels of ActA protein were visualized by western blot using a specific antibody.
A detailed procedure is provided in the Supplemental Experimental Procedures.
concentration of 0.1% DMSO. […] The
incubated on ice for 1 h.
washed in 80% ice cold acetone.
Subsequently the samples were centrifuged and the
added lysozyme and DNase.
secondary antibodies (Dako P0260).

[3] = test system: intracellular ActA expression of L. monocytogenes in Caco-2 cells; assay: Intracellular ActA levels in infected Caco-2 cells, compound added 30 min post infection; assay type: cell-based, Listeria monocytogenes; conditions: 100 μM added 30 min post infection, 4 hr post infection
Experimental: as §1
ActA western blotting detection for intracellular bacteria: The collected bacterial pellets were resuspended in 100µl 1x sample buffer (Laemmli, 1970) and lysed by incubation at 98 °C for 20 min. 10µL of each sample was subjected to SDS-PAG and Western blotting using anti-ActA […]
Production of antibodies against ActA was conducted by Agrisera. The antibodies were raised in rabbits, against a peptide mix consisting of Y21T(Kocks et al., 1993) and (NH2-) […]
(-CONH2). The rabbits were immunized four times over a four month period, the first with FCA and the subsequent with FIA. The antisera was recovered 2 weeks after the last immunization.
Infection for determination of intracellular ActA levels
Caco-2 cells were seeded into 24 well plates (Corning #356408) and allowed to grow until confluent. Indicated bacterial strains were grown to OD600 = 1, added to CaCo-2 cells at a MOI of 10, centrifuged for 10 min at 800 g and allowed to infect for 30 minutes. […]

[4] = test system: L. monocytogenes carrying PrfAWT in Caco-2 cells; assay: Time-course infection of Caco-2 cells, strain carrying PrfAWT; assay type: cell-based, Listeria monocytogenes; conditions: viable counts, 50 μM / 100 μM
Text: (§2) Figure 1 Ring-Fused 2-Pyridones Inhibit L. monocytogenes Uptake by Cultured Cells (A) Relative uptake (%) compared with control as determined by viable count measurements. […] All samples were correlated to the DMSO control (C, gray bar), which was arbitrarily set at 100%. Error bars show SDs. […] See also Figure S1. […] Error bars show SDs.

[5] = molecular target: T2, PrfAWT (Listeria monocytogenes serovar 1/2a, UniProt P22262); assay: Isothermal titration calorimetry (ITC), binding to purified PrfAWT
T2 construct: followed by residues Glu7-N237; vector-derived N-terminal tail […]; (left after thrombin cleavage; inferred from pET28a and Ni-NTA capture), removed by thrombin (N, cleaved yes); made in house; host or cells: E. coli BL21(DE3)

[6] = test system: L. monocytogenes strain F2365 uptake into Caco-2 cells; assay: Uptake of L. monocytogenes strain F2365 into Caco-2 cells; assay type: cell-based, Listeria monocytogenes; conditions: 50 μM, 2 hr
Experimental: Protein extracts were isolated from indicated L. monocytogenes strain in the absence (C, equivalent volume DMSO) or presence of 100 μM of 1 and the specified proteins (LLO PrfA, or P60 (control)) were detected by western blot using specific antibodies. […] (B) Compound 2 inhibits the uptake of an L. monocytogenes strain of serovar 4b. L. monocytogenes strain F2365 was allowed to infect Caco-2 cells for 2 hr with 2 (50 μM). All samples were correlated to the DMSO-treated control (C, gray bar) which was arbitrarily set at 100%. Error bars show SDs.

[7] = test system: L. monocytogenes strain EGDe (WT) uptake by HeLa cells; assay type: cell-based, Listeria monocytogenes; conditions: 10 and 1 μM, viable count
Text: as §2

[8] = molecular target: the molecule itself; assay: crystal structure

Row | Molecule | IC50 [1] | expression of LLO and ActA (protein) [2] | PrfA expression (protein) [2] | concentration down to which LLO and ActA levels were decreased ([2]; dose dependent) | induction of intracellular ActA levels [3] | replication of L. monocytogenes (PrfAWT) within Caco-2 cells [4] | binding stoichiometry per monomer of homodimeric PrfA [5] | uptake of the F2365 strain into Caco-2 cells [6] | L. monocytogenes uptake relative to untreated controls [7] | stoichiometry N [8]
1 | Cc1ccc(Cc2cc(=O)n3c(c2C2CC2)SC[C@H]3C(=O)O)c2ccccc12 [compound 2] | 6 to 7 µM | abolished | remained unchanged | ≤ 3.3 µM | weakened in compound-treated cells, although not completely abolished | inability of L. monocytogenes to replicate; also recorded: unable to replicate | 1 to 1 | effectively inhibited uptake | reducing the level of L. monocytogenes uptake | –
2 | O=C(O)[C@@H]1CSc2c(C3CC3)c(Cc3cnc4ccccc4c3)cc(=O)n21 [compound 3] | ~30 µM | did not reduce LLO or ActA expression | remained unchanged | – | – | – | 1 to 1 | – | consistently failed to attenuate uptake | –
3 | PrfA wild type (transcriptional activator PrfA of Listeria monocytogenes) (natural protein, also called PrfAWT; source: purified PrfA protein) MNAQAEEFKKYLETNGIKPKQFHKKELIFNQWDPQEYCIFLYDGITKLTSISENGTIMNLQYYKGAFVIMSGFIDTETSVGYYNLEVISEQATAYVIKINELKELLSKNLTHFFYVFQTLQKQVSYSLAKFNDFSINGKLGSICGQLLILTYVYGKETPDGIKITLDNLTMQELGYSSGIAHSSAVSRIISKLKQEKVIVYKNSCFYVQNLDYLKRYAPKLDEWFYLACPATWGKLN | – | – | – | – | – | – | – | – | – | 2
